Measurements taken from patent US12281363B2, “Methods for detecting antiviral-drug resistant virus” (Secretary of State for Health and Social Care, priority 2018, dated 2025).
Read-outs that look alike come from different tables or passages of the source.

Test system: HSV-2
Experiment: Plaque reduction assay, HSV-2 clinical isolates on Vero cells
Type: cell-based
Settings: Human alphaherpesvirus 2, Vero
Excerpt: Viral isolates were used to infect a sub-confluent monolayer of Vero cells at a concentration of 75 or 50 plaque forming units (PFU) per well for HSV-1 and HSV-2, respectively. […] CMC medium typically used to create a semisolid interface and prevents indiscrimate viral spreading. Other materials (e.g. agar) may also be used to create this interface.
Cells were fixed with 10% formalin and stained with crystal violet before enumeration of the plaques (microscopic observation or use of fluorescent antibodies for detection is also suitable). The data obtained from these experiments were then expressed as percent inhibition of viral infectivity relative to the no drug control.
Definitions of phenotypic drug susceptibility classification as sensitive or resistant were as follows: ACV, <3 μM or >40 μM; PCV, <10 μM or >40 μM; CDV, <24 μM or >30 μM; FOS, <250 μM or >400 μM; and ACV, <6.5 μM or >40 μM; PCV, <38 μM or >40 μM; FOS, <250 μM or >400 μM for HSV-1 and HSV-2, respectively. Any IC50 values falling in between these sensitive and resistant cut-offs were reported as intermediate resistance.
The phenotype (i.e. reactivity to a drug) of the virus was characterised by the plaque reduction assay as described above. The present inventors have characterised the resistance-causing phenotype of a large number of TK and DNA pol mutations.

O=C(O)P(=O)(O)O [Foscarnet, foscarnet]
IC50 (isolate HPG001, HSV-2 TK A125T (373G>A), read-out: Drug susceptibility (IC50 value)): 236 µM | IC50 (isolate HPG001, HSV-2 TK A125T (373G>A), read-out: Drug susceptibility Foscarnet (FOS)): < 250 µM | IC50 (isolate HPG001, HSV-2 pol H714R (2141A>G), read-out: Drug susceptibility (IC50 value)): 236 µM | IC50 (isolate HPG001, HSV-2 pol H714R (2141A>G), read-out: Drug susceptibility Foscarnet (FOS)): < 250 µM | IC50 (isolate HPG004, HSV-2 pol M494T (1481T>C), also pol S729N, read-out: Drug susceptibility (IC50 value)): 349 µM | IC50 (isolate HPG004, HSV-2 pol M494T (1481T>C), also pol S729N, read-out: Drug susceptibility Foscarnet (FOS)): 250 to 400 µM | IC50 (isolate HPG007, HSV-2 pol R628G (1882C>G), read-out: Drug susceptibility (IC50 value)): 783 µM | IC50 (isolate HPG007, HSV-2 pol R628G (1882C>G), read-out: Drug susceptibility Foscarnet (FOS)): > 400 µM | IC50 (isolate HPG017, HSV-2 TK Q186H (558G>T), read-out: Drug susceptibility (IC50 value)): 118 µM | IC50 (isolate HPG017, HSV-2 TK Q186H (558G>T), read-out: Drug susceptibility Foscarnet (FOS)): < 250 µM | IC50 (isolate HPG022, HSV-2 TK E213D (639A>C), read-out: Drug susceptibility (IC50 value)): 82 µM | IC50 (isolate HPG022, HSV-2 TK E213D (639A>C), read-out: Drug susceptibility Foscarnet (FOS)): < 250 µM | IC50 (isolate HPG022, HSV-2 pol D174Y (520G>T), read-out: Drug susceptibility (IC50 value)): 82 µM | IC50 (isolate HPG022, HSV-2 pol D174Y (520G>T), read-out: Drug susceptibility Foscarnet (FOS)): < 250 µM | IC50 (isolate HPG023, HSV-2 TK Q186H (558G>T), read-out: Drug susceptibility (IC50 value)): 78 µM | IC50 (isolate HPG023, HSV-2 TK Q186H (558G>T), read-out: Drug susceptibility Foscarnet (FOS)): < 250 µM | IC50 (isolate HPG024, HSV-2 TK E213D (639A>C), read-out: Drug susceptibility (IC50 value)): 88.7 µM | IC50 (isolate HPG024, HSV-2 TK E213D (639A>C), read-out: Drug susceptibility Foscarnet (FOS)): < 250 µM | IC50 (isolate HPG028, HSV-2 TK 98stop or A94fs (276delG, 278delG, 279delG, or 280delG), read-out: Drug susceptibility (IC50 value)): 98.8 µM | IC50 (isolate HPG028, HSV-2 TK 98stop or A94fs (276delG, 278delG, 279delG, or 280delG), read-out: Drug susceptibility Foscarnet (FOS)): < 250 µM | IC50 (isolate HPG028, HSV-2 pol E776Q (2326G>C), also TK deletion (G) nt 276-280, read-out: Drug susceptibility (IC50 value)): 98.8 µM | IC50 (isolate HPG028, HSV-2 pol E776Q (2326G>C), also TK deletion (G) nt 276-280, read-out: Drug susceptibility Foscarnet (FOS)): < 250 µM | IC50 (isolate HPG028, HSV-2 pol R775C, R775W (2323C>T; 2325C>G), also TK deletion (G) nt 276-280, read-out: Drug susceptibility (IC50 value)): 98.8 µM | IC50 (isolate HPG028, HSV-2 pol R775C, R775W (2323C>T; 2325C>G), also TK deletion (G) nt 276-280, read-out: Drug susceptibility Foscarnet (FOS)): < 250 µM | IC50 (isolate HPG030, HSV-2 TK Q90stop (268C>T), read-out: Drug susceptibility (IC50 value)): 92.3 µM | IC50 (isolate HPG030, HSV-2 TK Q90stop (268C>T), read-out: Drug susceptibility Foscarnet (FOS)): < 250 µM | IC50 (isolate HPG030, HSV-2 pol E761K (2281G>A), also TK Q90stop, read-out: Drug susceptibility (IC50 value)): 92.3 µM | IC50 (isolate HPG030, HSV-2 pol E761K (2281G>A), also TK Q90stop, read-out: Drug susceptibility Foscarnet (FOS)): < 250 µM | IC50 (isolate HPG034, HSV-2 TK L313S (938A>C), read-out: Drug susceptibility Foscarnet (FOS)): < 250 µM | IC50 (isolate HPG036, HSV-2 TK E84K (250G>A), read-out: Drug susceptibility (IC50 value)): 78.8 µM | IC50 (isolate HPG036, HSV-2 TK E84K (250G>A), read-out: Drug susceptibility Foscarnet (FOS)): < 250 µM | IC50 (isolate HPG038, HSV-2 TK R34C (100C>T), read-out: Drug susceptibility (IC50 value)): 73.7 µM | IC50 (isolate HPG038, HSV-2 TK R34C (100C>T), read-out: Drug susceptibility Foscarnet (FOS)): < 250 µM | IC50 (isolate HPG044, HSV-2 TK M86L (256A>C), read-out: Drug susceptibility (IC50 value)): 73.8 µM | IC50 (isolate HPG044, HSV-2 TK M86L (256A>C), read-out: Drug susceptibility Foscarnet (FOS)): < 250 µM | IC50 (isolate HPG048, HSV-2 TK Q90stop (268C>T), read-out: Drug susceptibility (IC50 value)): 56.9 µM | IC50 (isolate HPG048, HSV-2 TK Q90stop (268C>T), read-out: Drug susceptibility Foscarnet (FOS)): < 250 µM | IC50 (isolate HPG048, HSV-2 pol E761K (2281G>A), also TK Q90stop, read-out: Drug susceptibility (IC50 value)): 56.9 µM | IC50 (isolate HPG048, HSV-2 pol E761K (2281G>A), also TK Q90stop, read-out: Drug susceptibility Foscarnet (FOS)): < 250 µM | IC50 (isolate HPG057, HSV-2 TK 98stop or A94fs (276delG, 278delG, 279delG, or 280delG), read-out: Drug susceptibility (IC50 value)): 98.5 µM | IC50 (isolate HPG057, HSV-2 TK 98stop or A94fs (276delG, 278delG, 279delG, or 280delG), read-out: Drug susceptibility Foscarnet (FOS)): < 250 µM | IC50 (isolate HPG058, HSV-2 TK 183stop or P154fs (458delC, 459delC, 460delC, or 461delC), read-out: Drug susceptibility (IC50 value)): 59 µM | IC50 (isolate HPG058, HSV-2 TK 183stop or P154fs (458delC, 459delC, 460delC, or 461delC), read-out: Drug susceptibility Foscarnet (FOS)): < 250 µM | IC50 (read-out: Drug susceptibility (IC50 value), isolate HPG034, HSV-2 TK L313S (938A>C)): 73.5 µM | IC50 (read-out: Drug susceptibility (IC50 value), isolate HPG056, HSV-2 pol M447L (1339A>C)): 88 µM | IC50 (read-out: Drug susceptibility Foscarnet (FOS), isolate HPG056, HSV-2 pol M447L (1339A>C)): < 250 µM
